We go through 1 compound from publication PMC5618418, “Pharmacokinetics of Jaspine B and Enhancement of Intestinal Absorption of Jaspine B in the Presence of Bile Acid in Rats” (Marine Drugs, 2017).

For series [1], the system named is SK-OV3. Details: method as in doi:10.5352/JLS.2016.26.12.1392. As to conditions: SK-OV3 ovarian; cited from earlier work.
The subject of series [2] is MDA-MB-435. On the set-up: method as in doi:10.5352/JLS.2016.26.12.1392. As to conditions: MDA-MB-435 melanoma; cited from earlier work.
Series [3] is described as follows: Metabolic stability in rat liver microsomes. The class given is in vitro ADME. As to conditions: for percentage remaining: 37 °C. As to the method:
Jaspine B (1 μM) was reconstituted in 100 mM potassium phosphate buffer (pH 7.4) containing 0.25 mg of RLMs and was pre-incubated for 5 min at 37 °C. The reaction was initiated by adding an NADPH-generating system (1.3 mM β-NADP, 3.3 mM glucose-6-phosphate, 3.3 mM MgCl2, and 1.0 unit/mL glucose-6-phosphate dehydrogenase) and then incubated (final volume 100 μL) for 0, 15, 30, and 60 min at 37 °C in a shaking water bath. The reaction was stopped by placing the incubation tubes on ice and adding 200 μL of ice-cold acetonitrile containing 0.5 ng/mL of berberine. After vortexing for 10 min and centrifugation at 13,200 rpm for 5 min, 2 μL of the supernatant was injected directly into the LC-MS/MS system.

A short description of series [4]: Cumulative urinary and fecal excretion in metabolic cage. The class given is in vivo. As to conditions: rat, IV 10 mg/kg, 72 h; for dose excreted: feces and urine combined, read-out: recovery of unaltered Jaspine B from combined feces and urine. As for the experimental part: In the experiment using metabolic cages, feces were collected at 12, 24, 48, and 72 h following the IV administration of Jaspine B (10 mg/kg). Aliquots of 50 μL of urine and 10% feces homogenates were stored at −80 °C until the analysis.
Aliquots (50 μL) of plasma, bile, feces homogenates, and urine samples were added to 250 μL of acetonitrile containing 0.5 ng/mL of berberine (an internal standard). After vortexing for 10 min and centrifugation at 13,200 rpm for 5 min, an aliquot (2 μL) of the supernatant was injected directly into the LC-MS/MS system. For the analysis of plasma concentration, the standard curve range was 25–5000 ng/mL and the concentrations of quality control (QC) samples were 75, 500, and 3000 ng/mL, as described previously. Concentrations of Jaspine B in urine, bile, and feces homogenates were 5–300 ng/mL, 20–5000 ng/mL, and 20–5000 ng/mL, respectively. The concentrations of QC samples were 15, 100, and 300 ng/mL for urine samples and 75, 500, and 3000 ng/mL for bile and feces homogenates.

The nature of series [5]: in vitro. The series is classed as in vitro ADME, rat. As to the method:
For the measurement of the effect of TC on the tight junction of biological membranes, the permeability of 50 μM Lucifer yellow, a marker of paracellular permeation, was measured in the presence of TC (0, 0.1, 1, 10, 100 mM). Prior to the experiment, ileal segments from SD rats (about 20 cm) were placed in the chambers and were submerged in fresh, prewarmed (37 °C) HBSS for 15 min for acclimatization. The chambers were continuously bubbled with carbogen gas (5% CO2/ 95% O2) during the experiment. The experiments began by replacing the HBSS with HBSS containing 50 μM Lucifer yellow and various concentrations of TC on the apical side (A) and adding fresh HBSS to the basal side (B). Aliquots (400 μL) of media were withdrawn from the receiver compartment (B) after 0, 20, 40, 60, and 80 min, and the volume of liquid in the receiver compartment was replenished with fresh, prewarmed HBSS after each sampling. Aliquots (200 μL) of all samples were used for the determination of Lucifer yellow concentration. The fluorescence of Lucifer yellow in the samples was measured using a fluorescence spectrophotometer (Infinite 200 PRO, Tecan, Switzerland) with excitation at 425 nm and emission at 535 nm.
A to B and B to A permeability of Jaspine B was measured in the presence of TC and rat bile. One mL of HBSS containing 50 μM Jaspine B and 10 mM TC or 20% bile was added to the donor side and 1 mL of preheated fresh HBSS was added to the receiver side. Aliquots (400 μL) of media were withdrawn at 0, 20, 40, 60, and 80 min from the receiver compartment as described above. Aliquots (50 μL) of all samples were stored at −80 °C until analysis.
Aliquots (50 μL) of all samples were added to 250 μL of acetonitrile containing 0.5 ng/mL of berberine. After vortexing for 10 min and centrifugation at 13,200 rpm for 5 min, 2 μL of the supernatant was injected directly into the LC-MS/MS system.
The apparent permeability (Papp) of the drug was calculated by dividing the initial drug transport rate (dQ/dt, pmol/min) by the initial drug concentration in the donor compartment of the insert (Co) multiplied by the surface area of the insert (A, cm^2): (3) Papp=dQ/dt×1/ACo

Series [6] in a line: Apparent partition coefficient between n-octanol and PBS. The series is classed as physicochemical. Conditions: n-octanol/PBS pH 7.4, 10 mM TC vs absence of TC, 25 °C. As for the experimental part: The effect of TC on the apparent partition coefficients (APC) of Jaspine B between aqueous and organic phases was investigated. n-Octanol and phosphate-buffered saline (PBS, pH 7.4) were used as the organic and aqueous phases, respectively, in the partition study. n-Octanol and PBS were saturated with respect to one another prior to use. An equal volume of n-octanol was added to PBS (5 mL each) containing Jaspine B (10 mM) and TC (0, 0.1, 1, 10, or 100 mM) in a screw-capped test tube, and the mixture was vortexed vigorously for 5 min followed by shaking for 2 h at 25 °C in a temperature-controlled water bath. After standing for 1 h at 25 °C in the water bath, the mixture was separated into two phases by centrifugation at 3000 rpm for 10 min. The concentration of Jaspine B in a 50-μL aliquot of aqueous and organic phase was measured. Briefly, 50 μL of sample was added to 250 μL of acetonitrile containing 0.5 ng/mL of berberine. After vortexing for 10 min and centrifugation at 13,200 rpm for 5 min, an aliquot (2 μL) of the supernatant was injected directly into the LC-MS/MS system. The APC was calculated from the concentration ratio of each compound between the octanol and PBS phases.

Series [7] relates to MCF-7. On the set-up: method as in doi:10.5352/JLS.2016.26.12.1392. Conditions: MCF-7 breast cancer cells; cited from earlier work.
Series [8] deals with MDA-MB-231. Details: method as in doi:10.5352/JLS.2016.26.12.1392. Conditions: MDA-MB-231 human breast adenocarcinoma; cited from earlier work.

Read-outs that look alike come from different tables or passages of the source.

Consider `CCCCCCCCCCCCCC[C@@H]1OC[C@H](N)[C@@H]1O` [Jaspine B], for which the IC50 – broadly, the concentration that gives 50% inhibition – in series [1] is 4.78 µM; in series [2], 2.6 µM; in series [7], 2.31 µM; in series [8], over 100 µM. Also, the percentage remaining in series [3] (1 μM, rat liver microsomes, NADPH-generating system, 30 min) came out at 59.8%; in series [3] (1 μM, rat liver microsomes, NADPH-generating system, 60 min), 20.4%. In series [3] (1 h incubation with rat liver microsomes), this compound showed a degraded of 80%. Also, the half-life at 1 μM in series [3] (pH 7.4, 1 μM, rat liver microsomes, NADPH-generating system, read-out: degradation half-life (T1/2)) is 24 min. In addition, the dose excreted in series [4] (SD (Sprague-Dawley)) was 6.3%; in series [4] (Sprague-Dawley (SD)), about 6.3%. In addition, the “dose recovered from feces” value in series [4] (metabolic cage) stood at 4.7 ± 0.8%. Besides, the “dose recovered from urine” value in series [4] (metabolic cage) is reported as 1.6 ± 0.7%. The permeability change entry in series [5] is listed as “increased the permeability”. For the same compound, the Papp – broadly, the rate of passage across a membrane or cell layer, normalised by area and donor concentration – at 80 min, 50 μM in series [5] (Sprague-Dawley, rat) turned out to be 0.11 ×10⁻⁶ cm/s. For the same compound, the “increase of secretory (B to A) permeability” value in series [5] (Sprague-Dawley, rat, 80 min, 50 μM) was “approximately 5 fold”. The “increase of partition coefficient” value in series [6] came out at 10 fold.
